Results as given in paper PMC3100252, “A theoretical entropy score as a single value to express inhibitor selectivity” (BMC Bioinformatics, 2011).
Where two headings read alike, the source gives them in different places.

Columns and labels:
[1] = system: 290 kinases (excluding mutants); settings: cited from earlier work
[2] = system: 290 kinases (excluding mutants); assay type: binding; settings: for Ka-Gini: Gini score calculated directly on Kas of the Ambit dataset (Kds of ref 5); for entropies (selectivity entropy, Ssel): calculated from Kds of the Ambit dataset (ref 5)
Description: Having defined the entropy, we next investigated its performance relative to the most widely-used methods, on a public profiling dataset of 38 inhibitors on 290 non-mutant kinases (Table 1 and Additional file 1). […] To this we added a Ka-Gini value and the selectivity entropy. The Ka-Gini is a Gini score directly calculated on Kas, without reverting to %-inhibition values (see below). […] In addition, to get an overview of the profiling raw data, we appended an activity-based heat map (Uitdehaag_S1).
(§1) It is worth to note that the partition coefficient is the same as ϕl in our entropy equation (eq. 2).
The Gini score was calculated from data on %-inhibition. […] In addition, to work more directly with Kds, we also introduce a Ka-Gini score, in which association constants are used for rank-ordering the kinase profile. […] All calculations were done in Microsoft Excel. […]

222 human kinases = assay: Millipore kinase profiling (radioactive filter binding activity assay at [ATP] = KM,ATP) and selectivity metrics calculated from it; assay type: biochemical; set-up: selectivity score: scale not given here; settings: for Ka-Gini score / Pmax / S10x / selectivity score: calculated from Millipore activity data; for selectivity entropy: calculated from Millipore activity data (pEC50), [ATP] = KM,ATP
Description: As a next step we selected 16 compounds from the public profile (Ambit), and measured activity data on these using a different profiling service (Millipore, data available as Additional file 2). […] Also for these new data, we calculated the selectivity metrics (Uitdehaag_S2). In the ideal case, the selectivity values are similar irrespective of profiling technology (in the same way that a Kd value is ideally independent of laboratory and assay format). The data of both methods are plotted in Figure 2.
as §1
The Gini score was calculated from data on %-inhibition. […] In addition, to work more directly with Kds, we also introduce a Ka-Gini score, in which association constants are used for rank-ordering the kinase profile. […] All calculations were done in Microsoft Excel.
For comparing profiles across methods (Figure 2), we selected 16 kinase inhibitors of the Ambit profile (Table 2) and submitted these to the kinase profiling service from Millipore (http://www.millipore.com/drugdiscovery/svp3/kpservices, data available as Additional file 2). Both profiling methods are described earlier and differ (among other variations) in the following way: Ambit uses a competitive binding setup in absence of ATP on kinases from T7 or HEK293 expression systems. Millipore uses a radioactive filter binding activity assay, with kinases purified from Escherichia coli or baculovirus expression systems.

[3] = Ambit dataset, 38 inhibitors on 290 non-mutant kinases, values taken from earlier work
[4] = Ambit dataset, fraction of kinases hit at 10 times the Kd of the target, values taken from earlier work
[5] = Ambit dataset, fraction of kinases hit below 3 μM, values taken from earlier work
[6] = Ambit dataset, values taken from earlier work
[7] = rank among 38 inhibitors, Ambit dataset

| SMILES | Gini [1, 3] | S10x [1, 4] | Pmax (partition index) [1, 6] | Ka-Gini [2] | entropies (selectivity entropy, Ssel) ([2]; 290 kinases) | further results |
| --- | --- | --- | --- | --- | --- | --- |
| Cc1ccc(F)c(NC(=O)Nc2ccc(-c3cccc4[nH]nc(N)c34)cc2)c1 [ABT-869, linifanib] | 0.82 | 0.01 | 0.32 | 0.98 | 1.93 | S3uM (selectivity score S(3 μM)) [1, 5]: 0.16; Ka-Gini score (222 human kinases): 0.968; Pmax (222 human kinases): 0.132; S10x (222 human kinases): 0.025; selectivity score (222 human kinases): 0.235; selectivity entropy (222 human kinases): 2.834 |
| CC1(C)CNc2cc(NC(=O)c3cccnc3NCc3ccncc3)ccc21 [AMG-706] | 0.82 | 0.04 | 0.22 | 0.97 | 2.36 | S3uM (selectivity score S(3 μM)) [1]: 0.09 |
| CCN1CCN(Cc2ccc(NC(=O)Nc3ccc(Oc4cc(NC)ncn4)cc3)cc2C(F)(F)F)CC1 [AST-487] | 0.73 | 0.04 | 0.11 | 0.95 | 2.74 | S3uM (selectivity score S(3 μM)) [1, 5]: 0.45 |
| Cn1cnc2c(F)c(Nc3ccc(Br)cc3Cl)c(C(=O)NOCCO)cc21 [AZD6244] |  |  |  |  |  | Ka-Gini score (222 human kinases): 1.000; Pmax (222 human kinases): 0.999; S10x (222 human kinases): 0.002; selectivity entropy (222 human kinases): 0.020 |
| CN1CCN(c2ccc3nc(-c4c(N)c5c(F)cccc5[nH]c4=O)[nH]c3c2)CC1 [CHIR-258] | 0.76 | 0.01 |  | 0.97 |  |  |
| C=CC(=O)Nc1cc2c(Nc3ccc(F)c(Cl)c3)ncnc2cc1OCCCN1CCOCC1 [CI-1033] | 0.72 |  |  | 0.99 |  |  |
| C[C@@H]1CCN(C(=O)CC#N)C[C@@H]1N(C)c1ncnc2[nH]ccc12 [CP-690550, tasocitinib] | 0.66 |  |  |  |  | Ka-Gini score (222 human kinases): 0.995; Pmax (222 human kinases): 0.481; S10x (222 human kinases): 0.005 |
| COCC(=O)NC/C=C/c1ccc2ncnc(Nc3ccc(Oc4ccc(C)nc4)c(C)c3)c2c1 [CP-724714] | 0.49 | 0.01 | 0.33 | 0.99 | 1.10 | S3uM (selectivity score S(3 μM)) [1, 5]: 0.02 |
| CCOc1cc2ncc(C#N)c(Nc3ccc(F)c(Cl)c3)c2cc1NC(=O)/C=C/CN(C)C [EKB-569] | 0.78 | 0.00 | 0.67 | 0.99 | 0.89 | S3uM (selectivity score S(3 μM)) [1, 5]: 0.18 |
| C#Cc1cccc(Nc2ncnc3cc(OCCOC)c(OCCOC)cc23)c1 [Erlotinib] | 0.75 | 0.00 | 0.67 | 0.99 | 0.88 | S3uM (selectivity score S(3 μM)) [1]: 0.15 |
| CN1CC[C@H](c2c(O)cc(O)c3c(=O)cc(-c4ccccc4Cl)oc23)[C@H](O)C1 [Flavopiridol] | 0.77 |  |  | 0.95 |  |  |
| COc1ccc(COc2ccc(Cc3cnc(N)nc3N)cc2OC)cc1 [GW-2580] | 0.54 | 0.00 | 0.92 | 0.99 | 0.26 | S3uM (selectivity score S(3 μM)) [1, 5]: 0.01 |
| Cc1ccc(Nc2nccc(N(C)c3ccc4c(C)n(C)nc4c3)n2)cc1S(N)(=O)=O [GW-786034] | 0.80 | 0.02 | 0.33 | 0.97 | 2.06 | S3uM (selectivity score S(3 μM)) [1, 5]: 0.21 |
| COc1cc2ncnc(Nc3ccc(F)c(Cl)c3)c2cc1OCCCN1CCOCC1 [Gefitinib] | 0.65 |  |  |  |  |  |
| Cc1ccc(NC(=O)c2ccc(CN3CCN(C)CC3)cc2)cc1Nc1nccc(-c2cccnc2)n1 [Imatinib, imatinib] |  |  |  |  |  | Gini [1]: 0.79; S10x [1]: 0.02 |
| Nc1nc(Nc2ccc(S(N)(=O)=O)cc2)nn1C(=O)c1c(F)cccc1F [JNJ-7706621] | 0.74 | 0.08 | 0.10 | 0.87 | 3.73 | S3uM (selectivity score S(3 μM)) [1]: 0.37 |
| CN(C)C[C@@H]1CCn2cc(c3ccccc32)C2=C(C(=O)NC2=O)c2cn(c3ccccc23)CCO1 [LY-333531] | 0.76 |  |  | 0.98 |  |  |
| CS(=O)(=O)CCNCc1ccc(-c2ccc3ncnc(Nc4ccc(OCc5cccc(F)c5)c(Cl)c4)c3c2)o1 [Lapatinib] | 0.57 |  |  | 0.99 |  |  |
| O=C(NOC[C@H](O)CO)c1ccc(F)c(F)c1Nc1ccc(I)cc1F [PD-0325901] |  |  |  |  |  | Ka-Gini score (222 human kinases): 1.000; Pmax (222 human kinases): 0.857; S10x (222 human kinases): 0.002; selectivity score (222 human kinases): 0.005; selectivity entropy (222 human kinases): 0.550 |
| CO[C@@H]1[C@H](N(C)C(=O)c2ccccc2)C[C@H]2O[C@]1(C)n1c3ccccc3c3c4c(c5c6ccccc6n2c5c31)C(=O)NC4 [PKC-412] | 0.71 |  |  | 0.88 |  |  |
| Clc1ccc(Nc2nnc(Cc3ccncc3)c3ccccc23)cc1 [PTK-787] |  |  |  |  |  | Gini [1]: 0.71 |
| Oc1ccc(-c2nc(-c3ccncc3)c(-c3ccc(F)cc3)[nH]2)cc1 [SB-202190] | 0.76 | 0.02 | 0.35 | 0.97 | 2.08 | S3uM (selectivity score S(3 μM)) [1]: 0.09 |
| C[S+]([O-])c1ccc(-c2nc(-c3ccncc3)c(-c3ccc(F)cc3)[nH]2)cc1 (centres unmarked) [SB-203580] | 0.77 | 0.02 |  |  |  | Ka-Gini score (222 human kinases): 0.987; Pmax (222 human kinases): 0.342; S10x (222 human kinases): 0.016 |
| NC(=O)c1ccc(-c2nc(-c3ccc4c(c3)OCO4)c(-c3ccccn3)[nH]2)cc1 [SB-431542] | 0.42 | 0.01 | 0.14 | 0.98 | 1.56 | S3uM (selectivity score S(3 μM)) [1, 5]: 0.02; IC50 ([1]; Ambit profile, four kinases not named, read-out: IC50s on the four kinases hit with very similar IC50s): 0.1 to 0.3 µM; number of kinases inhibited below 3 μM ([2]; Ambit profile, 290 kinases): 5 kinases; selectivity rank by Ka-Gini [2, 7]: 15; selectivity rank by Pmax [2, 7]: 31; selectivity rank by selectivity entropy [2, 7]: 14 |
| CC(C)(C)c1cnc(CSc2cnc(NC(=O)C3CCNCC3)s2)o1 [SNS-032] |  |  |  | 0.97 |  |  |
| CN[C@@H]1C[C@H]2O[C@@](C)([C@@H]1OC)n1c3ccccc3c3c4c(c5c6ccccc6n2c5c31)C(=O)NC4 [Staurosporine] | 0.35 | 0.50 |  |  |  |  |
| Cc1cn(-c2cc(NC(=O)c3ccc(C)c(Nc4nccc(-c5cccnc5)n4)c3)cc(C(F)(F)F)c2)cn1 [nilotinib] |  |  |  |  |  | Ka-Gini score (222 human kinases): 0.980; Pmax (222 human kinases): 0.208; S10x (222 human kinases): 0.027; selectivity score (222 human kinases): 0.095; selectivity entropy (222 human kinases): 2.360 |
